Values of other authors, collected in patent US20080057111A1 (priority 2006, published 2008).

What was measured:
[1] = system: severe acute respiratory syndrome (SARS) virus; settings: recent report

SMILES	anti-endotoxin activity in vivo	effect on SARS virus [1]
O=C(O)c1ccccc1 [benzoic acid]	anti-endotoxin activity	
O=c1c(-c2ccc(O)cc2)coc2cc(O)ccc12 [daidzein]		inhibitory effect
C=CCC(=NOS(=O)(=O)O)S[C@@H]1O[C@H](CO)[C@@H](O)[C@H](O)[C@H]1O (stereo in doubt) [sinigrin]		inhibitory effect
OC[C@H]1O[C@@H](Oc2c[nH]c3ccccc23)[C@H](O)[C@@H](O)[C@@H]1O [indican]		inhibitory effect
CC[C@H](CC[C@@H](C)[C@H]1CC[C@H]2[C@@H]3CC=C4C[C@@H](O)CC[C@]4(C)[C@H]3CC[C@]12C)C(C)C [beta-sitosterol]		inhibitory effect
Nc1ccccc1C(=O)O [σ-aminobenzoic acid]	anti-endotoxin activity	
COc1ccc([C@@H]2CC(=O)c3c(O)cc(O)cc3O2)cc1O [hespertin]		inhibitory effect
O=C(O)c1ccccc1O [salicylic acid]	anti-endotoxin activity	
O=C1/C(=C2\Nc3ccccc3C2=O)Nc2ccccc21 [indigo]		inhibitory effect
COc1cc(C(=O)O)cc(OC)c1O [syringic acid]	anti-endotoxin activity	
